Results published in patent publication US20240043389A1, “COMPOUNDS AND METHODS FOR INHIBITION OF BAX-MEDIATED CELL DEATH” (Albert Einstein College of Medicine, priority 2020, published 2024).

Key:
[1] = target: T1, BAX (Homo sapiens, UniProt Q07812); test: Competitive fluorescence polarization binding assay (FITC-BIM-SAHB displacement from BAX)
T1 construct: Human full-length (1-192) wild-type BAX (Q07812); made in house; host or cells: E. coli BL21 (DE3) CodonPlus (DE3)-RIPL
Method: Fluorescence polarization assays (FPA) were performed as previously described (Reyna, D. E., et al. Cancer Cell 32 490-505 (2017)). Direct binding isotherms of BIM-SAHB were measured by incubated FITC-BIM-SAHB (25 nM) with serial dilutions of full-length BAX alone or in the presence of 0.5 or 1 μM EO. Competition binding assays were performed by titrating EO into BAX (150 nM) and FITC-BIM-SAHB (25 nM). Measurements were taken at 10-minute intervals over 60 minutes on a TECAN F200 PRO microplate reader. Reported curves represent a 10-minute time point. KD values and IC50 were determined using GraphPad Prism nonlinear fit four-parameter agonist or antagonist versus response with restraints for 100% and 0% bound calculated by the mP of saturated BAX+FITC-BIM-SAHB and FITC-BIM-SAHB alone.

[2] = tested on: platelets; test: Navitoclax-induced thrombocytopenia, platelet counts; type: in vivo, C57BL/6J mice; details: ABT-263 25 mg/kg single dose, oral gavage, within 24 hr
[3] = target: T2, BAX R134E R145E (Homo sapiens, UniProt Q07812, R134E/R145E); test: Liposomal release assay, BAX R134E R145E mutant; type: biochemical; details: 250 nM BAX, 5 nM tBID; read-out: IC50, inhibition of liposomal release
T2 construct: Human full-length (1-192) wild-type BAX (Q07812); made in house; host or cells: E. coli BL21 (DE3) CodonPlus (DE3)-RIPL
T2 sequence (Q07812 whole entry R134E/R145E): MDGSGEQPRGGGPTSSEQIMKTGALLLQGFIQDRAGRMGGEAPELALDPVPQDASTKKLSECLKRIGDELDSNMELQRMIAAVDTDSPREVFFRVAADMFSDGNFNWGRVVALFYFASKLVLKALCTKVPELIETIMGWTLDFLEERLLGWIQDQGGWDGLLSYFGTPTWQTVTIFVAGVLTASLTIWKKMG
Method: (§1) Liposomes were formed by extrusion of the suspension using Avanti Mini-Extruder (cat #610000) with polycarbonate membranes of 0.1 μm pore size (Avanti Polar Lipids). ANTS/DPX encapsulated liposomes were purified from non-encapsulated ANTS/DPX by gel filtration of a 10 mL CL2B-Sepharose (GE Healthcare Life Sciences) gravity flow column. […] Reactions were initiated by the addition of 10 μL of the encapsulated ANTS/DPX liposome stock. ANTS/DPX release was quantified based on the increase in fluorescence intensity that occurs when the ANTS fluorophore is separated from the DPX quencher upon release from the liposomes into solution. Fluorescence (λex=355 nm and λem=520 nm) was measured at 1-minute intervals at room temperature (22-25° C.) indicated using a Tecan Infinite M1000 plate reader. In the case of heat activation, reactions were setup as described in the absence of tBID or BIM, and experiments were recorded at 42° C. The percentage release of ANTS/DPX at any given time point was calculated as percentage release=((F−F0)/(F100−F0))(100), where F0 and F100 are baseline and maximal fluorescence, respectively. Triton X-100 (1%) was used to determine the maximum amount of liposomal release per assay and was set to 100%.

[4] = tested on: BAX−/−MEFs; test: STS-induced caspase 3/7 assay in BAX-/- MEFs; type: cell-based, mouse; details: MEFs expressing only BAK, 3 μM STS, 6 hr
Description: FIGS. 9a, 9b, 9c, 9d, 9e, and 9f are a set of diagrams showing that eltrombopag inhibits BAX translocation and BAX-mediated apoptosis in cells. […] BAX translocation is based on antibody-based detection of BAX and mitochondrial protein TOMM20. Representative confocal micrographs from three independent biological experiments. Scale bar, […]. […] Data represent ±SEM of three independent biological replicates. Two-sided t test, ****P<0.0001; ***P<0.001; **P<0.01; *P<0.05; ns, P>0.05. […] Actin and VDAC are loading controls for cytosolic and mitochondrial fractions, respectively. FIGS. 9d and 9e show a caspase 3/7 assay of BAK−/− mouse embryonic fibroblasts (MEFs) (FIG. 9d) and BAX−/−MEFs (FIG. 9e) in response to 3 μM STS and the presence or absence of various doses of EO for 6 hr. Data represent mean of n=3±SEM and are representative of three independent experiments. Two-sided t-test, **** P<0.0001; ***P<0.001;**P<0.01; *P<0.05; ns, P>0.05. […] Data represent mean of n=3±SEM.

[5] = target: T3, BAX R145E (Homo sapiens, UniProt Q07812, R145E); test: Liposomal release assay, BAX R145E mutant; type: biochemical; details: 250 nM BAX, 5 nM tBID
T3 construct: Human full-length (1-192) wild-type BAX (Q07812); made in house; host or cells: E. coli BL21 (DE3) CodonPlus (DE3)-RIPL
T3 sequence (Q07812 whole entry R145E): as the sequence (Q07812 whole entry R134E/R145E) above, with E134R counted along it
Method: as §1

[6] = target: T4, 15N-labeled BAX (Homo sapiens, UniProt Q07812); test: 1H-15N HSQC NMR chemical shift perturbation; type: binding
T4 construct: Human full-length (1-192) wild-type BAX (Q07812); made in house; host or cells: E. coli BL21 (DE3) CodonPlus (DE3)-RIPL
T4 sequence (Q07812 whole entry): as the sequence (Q07812 whole entry R134E/R145E) above, with E134R, E145R counted along it
Method: The uniformly ^15N-labeled protein samples were prepared by growing the bacteria in the minimal medium, as previously described (Uchime, O., et al. J Biol Chem 291, 89-102, (2016)). Unlabeled and ^15N-labeled protein samples were prepared in 50 mM potassium phosphate, 50 mM NaCl solution at pH 6.0 in 10% D20. All experiments were performed using an independent sample for each experimental measurement as a 400 μL sample in a 5-mm Shigemi; all samples were DMSO matched with 2% d6-DMSO. Correlation ^1H-^15N-HSQC spectra were recorded on ^15N-labeled BAX at 50 μM in the presence and absence of 100 μM of EO. NMR spectra were acquired at 25° C. on a Bruker 600 MHz spectrometer equipped with a cryoprobe, processed using TopSpin and analyzed using NMRView. […] The weighted average chemical shift perturbation (CSP) was calculated as √(L1δ^1H)^2+(L1δ^15N/5)^2)/2 in p.p.m. […] The significance threshold for backbone amide chemical shift changes was calculated based on the average chemical shift across all residues plus 0.5 or 1 s.d. Solvent-accessible surface area was probed by the addition of 10 mM hy-TEMPO (sigma) to 50 μM ^15N-labeled BAX with and without 100 μM EO measured using standard ^1H-^15N-HSQC with an increased recycle delay of 2 sec. PRE was calculated as the ratio of peak intensities of BAX in the presence of hy-TEMPO to BAX without hy-TEMPO (% intensity). […]

[7] = target: T1, BAX; test: Liposomal permeabilization (release) assay; type: biochemical; details: compared with EO
Method: as §1

[8] = tested on: platelets; details: platelets isolated from treated patients; cited from earlier work

T1 sequence (Q07812 whole entry): as the sequence (Q07812 whole entry R134E/R145E) above, with E134R, E145R counted along it

## COc1c(NN=C2C(=O)N(c3cccc([N+](=O)[O-])c3)N=C2C)cccc1-c1cccc(C(=O)O)c1 [EO-2, 2′-methoxy-3′-(2-(3-methyl-1-(3-nitrophenyl)-5-oxo-1,5-dihydro-4H-pyrazol-4-ylidene)hydrazineyl)-[1,1′-biphenyl]-3-carboxylic acid]
[1]; FIG. 7a
  competitive binding to the BAX trigger site (FP): competitive binding

## CC1(C)CCC(c2ccc(Cl)cc2)=C(CN2CCN(c3ccc(C(=O)NS(=O)(=O)c4ccc(N[C@H](CCN5CCOCC5)CSc5ccccc5)c(S(=O)(=O)C(F)(F)F)c4)cc3)CC2)C1 [navitoclax]
[2]
  platelet loss: significant platelet loss

## CC1=NN(c2ccc(C)c(C)c2)C(=O)/C1=N\Nc1cccc(-c2cccc(C(=O)O)c2)c1O [EO, eltrombopag]
[3]
  IC50: > 10 µM
[4]
  STS-induced apoptosis mediated by caspase 3/7 activity: no effect
[5]
  IC50 relative to BAX WT: more than double that of BAX WT

## COC(=O)c1cccc(-c2cccc(NN=C3C(=O)N(c4ccc(C)c(C)c4)N=C3C)c2O)c1 [EO-Methyl Ester, eltrombopag methyl ester]
[6]
  chemical shift perturbations of 15N-labeled BAX: minimal CSPs
[7]
  inhibition of BAX in liposomal release assays: significantly diminished inhibition
[1]; BAX 150 nM, FITC-BIM-SAHB 25 nM, read-out: IC50, competition of FITC-BIM-SAHB by FPA
  IC50: > 5 µM

## romiplostim
[8]
  resistance of patient platelets to ABT-263 (Navitoclax) induced cell death: not observed
